This note sets out measurements from patent US6515140B2, “Fused pyrrolecarboxamides; a new class of GABA brain receptor ligands” (Neurogen Corporation, priority 1996, dated 2003).

SMILES strings stand for the structures.

As usually defined, the melting point is the temperature of the solid-liquid transition. Compound `O=C(Nc1ccc(OCCNC2C3CC4CC(C3)CC2C4)cc1)c1c[nH]c2c1C(=O)CCC2` (centres unmarked) [Compound 83, N-[4-(2-adamant-2-ylaminoethoxy)phenyl]-4-oxo-4,5,6,7-tetrahydro-1H-indole-3-carboxamide] returned a melting point of 144 to 149 °C.

On to `O=C(Nc1ccc(OC[C@@H]2CCCN2)cc1)c1c[nH]c2c1C(=O)CCC2` [Compound 85, N-{4-[(S)-Pyrrolidin-2-ylmethoxy]phenyl}-4-oxo-4,5,6,7-tetrahydro-1H-indole-3-carboxamide], for which the melting point is 165 to 167 °C.

Consider `CN(C)CCOc1ccc(NC(=O)c2c[nH]c3c2C(=O)CCC3)cc1` [Compound 88, N-[4-(2-Dimethylaminoethoxy)phenyl]-4-oxo-4,5,6,7-tetrahydro-1H-indole-3-carboxamide], for which the melting point is 201 °C. `CN(C)CCOc1ccc(NC(=O)c2c[nH]c3c2C(=O)CCC3)cc1F` [Compound 89, N-[3-Fluoro-4-(2-dimethylaminoethoxy)phenyl]-4-oxo-4,5,6,7-tetrahydro-1H-indole-3-carboxamide] had a melting point of 203 °C.

With `O=C(Nc1ccc(OCCN2CCCC2)cc1)c1c[nH]c2c1C(=O)CCC2` [Compound 90, N-[4-(2-Pyrrolidin-1-ylethoxy)phenyl]-4-oxo-4,5,6,7-tetrahydro-1H-indole-3-carboxamide], the melting point lay within 164 to 168 °C.

As for `O=C(Nc1ccc(OCCn2ccnc2)cc1)c1c[nH]c2c1C(=O)CCC2` [Compound 91, N-[4-(2-Imidaz-1-ylethoxy)phenyl]-4-oxo-4,5,6,7-tetrahydro-1H-indole-3-carboxamide], the melting point is 226 to 230 °C. The result for `O=C(Nc1ccc(OCCC2CCCCN2)cc1)c1c[nH]c2c1C(=O)CCC2` (centres unmarked) [Compound 94, N-[4-(2-Piperidin-2-ylethoxy)phenyl]-4-oxo-4,5,6,7-tetrahydro-1H-indole-3-carboxamide] reads 281 to 285 °C. Consider `CC(C)(C)NCCOc1ccncc1NC(=O)c1c[nH]c2c1C(=O)CCC2` [Compound 112, N-[4-(2-t-Butylaminoethoxy)pyrid-3-yl]-4-oxo-4,5,6,7-tetrahydro-1H-indole-3-carboxamide], for which the melting point lay within 274 to 278 °C. Turning to `CN(C)CCOc1ccncc1NC(=O)c1c[nH]c2c1C(=O)CCC2` [Compound 122, N-[4-(2-Dimethylaminoethoxy)pyrid-3-yl]-4-oxo-4,5,6,7-tetrahydro-1H-indole-3-carboxamide], the melting point lay within 163 to 166 °C. `CN(C)CCCOc1ccncc1NC(=O)c1c[nH]c2c1C(=O)CCC2` [Compound 123, N-[4-(3-Dimethylaminopropoxy)pyrid-3-yl]-4-oxo-4,5,6,7-tetrahydro-1H-indole-3-carboxamide] had a melting point of 247 °C. The result for `O=C(Nc1cnccc1OCCN1CCCC1)c1c[nH]c2c1C(=O)CCC2` [Compound 124, N-[4-(2-Pyrrolidin-1-ylethoxy)pyrid-3-yl]-4-oxo-4,5,6,7-tetrahydro-1H-indole-3-carboxamide] reads 148 to 150 °C; that for `CN1CCC(COc2ccncc2NC(=O)c2c[nH]c3c2C(=O)CCC3)C1` (centres unmarked) [Compound 131, N-{4-[(1-Methyl-pyrrolidin-3-yl)methoxy]pyrid-3-yl}-4-oxo-4,5,6,7-tetrahydro-1H-indole-3-carboxamide], 209 to 211 °C; that for `O=C(Nc1cccc(OCCCNC23CC4CC(CC(C4)C2)C3)c1)c1c[nH]c2c1C(=O)CCCC2` [Compound 183, N-[3-(3-Adamant-1-ylaminopropoxy)phenyl]4-oxo-1,4,5,6,7,8-hexahydro-cyclohepta[b]pyrrole-3-carboxamide], 175 to 176 °C. In the case of `O=C(Nc1cnccc1OCc1cccnc1)c1c[nH]c2c1C(=O)CCCC2` [Compound 194, N-[4-(Pyrid-3-ylmethoxy)pyrid-3-yl]-4-oxo-1,4,5,6,7,8-hexahydro-cyclohepta[b]pyrrole-3-carboxamide], the melting point lay within 241 to 243 °C.
